Values of other authors in publication PMC3523469 (Investigational New Drugs, 2012).

Details: cited from earlier work

## COc1cc2ncnc(Nc3ccc(F)c(Cl)c3)c2cc1NC(=O)/C=C/CN1CCCCC1 [dacomitinib, Dacomitinib]
1 each at 30 mg QD and 60 mg QD
  DLT stomatitis, number of patients: 2
Western patients, 0.5–60 mg studied
  maximum tolerated dose (MTD): 45 mg QD
Western patients
  clinically recommended phase II dose (RP2D): 45 mg QD
At 45 mg QD
  DLT rash, number of patients: 2
At 60 mg QD
  DLT palmar–plantar erythrodysesthesia syndrome, dehydration, and diarrhea in the same patient, number of patients: 1
